Measurements from patent US20240415791A1, “Therapeutic methods and compositions for treating cancer using devimistat and a fatty acid oxidation inhibitor, a tyrosine kinase inhibitor, a glutaminase inhibitor, and/or a glycolysis inhibitor” (Cornerstone Pharmaceuticals, Inc., priority 2021, published 2024).
Like-named read-outs stand apart in the source and are kept apart here.

Columns and labels:
Format in all cases: cell-based, human
AsPC1 cells [1] = assay: Acute ATP synthesis rescue by exogenous carbon sources in AsPC1 cells treated with devimistat and GPi; conditions: for inhibition of oleic acid (OA)-driven acute ATP synthesis / OA rescue / OA rescue blockade: 50 μM oleic acid; for OA rescue blockade: acute ATP synthesis, 50 μM GPi
AsPC1 cells [2] = assay: Devimistat-induced cell death (ATP after recovery) in AsPC1 cells; conditions: for sensitization to devimistat-induced cell death, agent combined with devimistat: AsPC1, nutrient-free CBS2, treatment followed by recovery in serum-free RPMI; for Devimistat synergy: devimistat-induced cell death, no exogenous carbon, 15 hours treatment then recovery
Description: Cells were plated at 80% confluency in complete RPMI in black, clear bottom 96-well plates or 35-mm dishes for ATP, protein and glycogen analysis, or glass coverslips for fluorescence visualization. […] Prior to drug treatment, cells were incubated in a nutrient-free carbonate buffered salt solution (CBS2) for 3 hours. Drug treatments were then carried out in CBS2 with addition of nutrient sources and/or chemical agents as described in the Examples and Figures.
(§1) LOGIC: High throughput, plate reader assays for cell death essentially always ultimately depend on metabolic activity of cells to identify viability, directly or indirectly. Thus, strong inhibition of metabolic activity by anti-metabolism agents like those described herein can confound cell death analysis by such assays. […] The inventors thus used a recovery-based assay wherein cells are treated with anti-metabolic agents under conditions where mitochondrial metabolism is (or becomes) limiting on viability. After experimental treatment, drug and media are removed and cells are allowed to recover in serum-free RPMI. RPMI provides high levels of glucose in support of glycolytic ATP generation (independently of mitochondrial function), allowing viable cells to recover ATP levels that are ultimately measured in the plate assay to score cell viability.
Survival is assessed by conventional luminescence measurement of ATP levels after this recovery.
TECHNICAL DETAILS: Immediately after drug treatments, acute ATP levels of cells in black, clear bottom 96-well plates were measured using the CellTiter-Glo® Luminescent Cell Viability Assay (catalog #G775B) following Promega (Madison, WI) protocols. […] After this recovery period ATP levels were measured using the CellTiter-Glo® Luminescent Cell Viability Assay as described above.
Survival is assessed by conventional luminescence measurement of ATP levels after this recovery. See the Methods section above for a detailed description of this assay and its validation.

PANC1 cells [3] = assay: Devimistat-induced cell death (ATP after recovery) in PANC1 cells; conditions: PANC1, nutrient-free CBS2, treatment followed by recovery in serum-free RPMI
Description: Cells were plated at 80% confluency in complete RPMI in black, clear bottom 96-well plates or 35-mm dishes for ATP, protein and glycogen analysis, or glass coverslips for fluorescence visualization. To create low nutritional conditions, cells were seeded in complete media, after 24 hours cells were transferred to serum free RPMI for 18-24 hours. Prior to drug treatment, cells were incubated in a nutrient-free carbonate buffered salt solution (CBS2) for 3 hours. Drug treatments were then carried out in CBS2 with addition of nutrient sources and/or chemical agents as described in the Examples and Figures.
as §1, with “cell viability. Under these conditions, cells that are committed to execution of cell death by the experimental treatment score as dead and cells that have not committed to cell death recover ATP levels and score as viable.” for “cell viability.”
Specifically, after exposure to the treatments indicated, cells are allowed to recover ([…]) in RPMI without serum. Survival is assessed by conventional luminescence measurement of ATP levels after this recovery.
TECHNICAL DETAILS: Immediately after drug treatments, acute ATP levels of cells in black, clear bottom 96-well plates were measured using the CellTiter-Glo® Luminescent Cell Viability Assay (catalog #G775B) following Promega (Madison, WI) protocols. To assess cell viability, after drug treatments, drug/agent-containing medium was replaced with serum-free RPMI and cells were incubated for an additional 17-24 hours to allow recovery of viable cells, without additional cell division. After this recovery period ATP levels were measured using the CellTiter-Glo® Luminescent Cell Viability Assay as described above.
A. Exogenous glucose protects from devimistat-induced cell death. Four different cell lines were exposed for 15 hours (PANC1, AsPC1, H460) or 8 hours (PC3) to the indicated range of devimistat doses in the absence of exogenous nutrients (in carbonate buffered balanced salts solution, CBS2) after 3 hours of preincubation in CBS2 (for cell adaptation and to equilibrate soluble nutrient pools). Cells were exposed to the treatments indicated, followed by recovery (24 hours) in RPMI without serum (providing nutrient support for viable cell recovery, without serum factors for cell division). Survival is assessed by conventional luminescence measurement of ATP levels after this recovery. […] The relatively large quantitative differences in devimistat sensitivity between cell lines under exogenous nutrient deprivation are characteristic of each line (see examples below), with small experiment-to-experiment variation. […]

AsPC1 cells [4] = assay: Glycogen content in AsPC1 cells; conditions: AsPC1, CBS2, 3 hours
Description: (§2) Glycogen was quantified using the Glycogen Assay Kit II (colorimetric) from AbCam (ab169558) according to manufacturer's instructions. Briefly, approximately 2×10^6 cells were washed with ice-cold PBS and collected via scraping in 300 μL ice-cold ddH2O. Cells were immediately sonicated on ice for 5× […] pulses with a probe sonicator (Misonix Inc, model XL2000), then heated to 80° C. for 10 min. Samples were stored O/N at −20° C., then thawed, centrifuged at 12,000×g for 10 min and the supernatants collected for glycogen hydrolysis and quantification according to manufacturer's instructions.
C. […] Cells were treated in CBS2 for 3 hours with 30 μM devimistat or mock treated (FIG. 2C, left), or treated for 3 hours with the indicated devimistat doses (FIG. 2C, right).
(§3) D. Effects of anti-metabolism agents on glycogen consumption in PANC1 and AsPC1 cells. […] Glycogen content was measured in cell lysates (see Methods, above) and the results are presented in the left and middle graphs in FIG. 3D (note the different vertical scales for PANC1 and AsPC1 plots).

PANC1 cells [5] = assay: Glycogen content in PANC1 cells; conditions: PANC1, CBS2, 3 hours
Description: as §2
C. Comparison of endogenous glycogen stores and their devimistat-induced depletion in PANC1 and AsPC1 cells. Cells were treated in CBS2 for 3 hours with 30 μM devimistat or mock treated (FIG. 2C, left), or treated for 3 hours with the indicated devimistat doses (FIG. 2C, right). Glycogen quantitation is described in Methods, above. ** indicates p<0.01. **** indicates p<0.0001.
as §3

AsPC1 cells [6] = assay: CO2 release from 14C-oleic acid in AsPC1 cells; conditions: AsPC1, CBS2, 50 μM GPi, 40 μM oleic acid
[7] = AsPC1, 50 μM GPi, 60 μM devimistat

Compound	sensitization to devimistat-induced cell death, agent combined with devimistat (AsPC1 cells [2])	glycogen consumption (AsPC1 cells [4])	inhibition of oleic acid (OA)-driven acute ATP synthesis / OA rescue (AsPC1 cells [1]; [7])	also measured
O=C(Cc1cccc(OC(F)(F)F)c1)Nc1ccc(CCCCc2nnc(NC(=O)Cc3ccccn3)s2)nn1 [CB-839, 2-(pyridin-2-yl)-N-(5-(4-(6-(2-(3-(trifluoromethoxy)phenyl)acetamido)pyridazin-3-yl)butyl)-1,3,4-thiadiazol-2-yl)acetamide]	modest effects on devimistat sensitivity			blockade of glutamine rescue from devimistat inhibition of ATP synthesis (AsPC1 cells [1]; AsPC1, 50 μM GPi, 60 μM devimistat, 2 mM glutamine, CB-839 0.2 μM, hexachlorophene 3 μM, 4.5 hours): blockade; sensitization to devimistat-induced cell death, agent combined with devimistat (PANC1 cells [3]): modest effects on devimistat sensitivity
CN(C)C(=O)[C@H](O)[C@H](Cc1ccccc1)NC(=O)c1cc2cc(Cl)ccc2[nH]1 [CP-91149, 5-chloro-N-[(1S,2R)-3-(dimethylamino)-2-hydroxy-3-oxo-1-(phenylmethyl)propyl]-1H-indole-2-carboxamide]	Synergy observed	reduces glycogen consumption		sensitization to devimistat-induced cell death, agent combined with devimistat (PANC1 cells [3]): interacts more weakly with devimistat; glycogen consumption (PANC1 cells [5]): reduces glycogen consumption
CCOC(=O)[C@@]1(CCCCCCOc2ccc(Cl)cc2)CO1 [ETX]	enhances devimistat effects		strongly inhibited	oleic acid beta-oxidation (CO2 release from oleate) (AsPC1 cells [6]): block oleic acid beta-oxidation
COc1cc2c(Oc3ccc(NC(=O)C4(C(=O)Nc5ccc(F)cc5)CC4)cc3F)ccnc2cc1OCCCN1CCOCC1 [Foretinib, N1′-[3-fluoro-4-[[6-methoxy-7-(3-morpholinopropoxy)-4-quinolyl]oxy]phenyl]-N1-(4-fluorophenyl)cyclopropane-1,1-dicarboxamide]	robustly sensitize		robust inhibition	OA rescue blockade (AsPC1 cells [1]; 60 μM devimistat): Yes; Devimistat synergy (AsPC1 cells [2]): Yes
CNC(=O)c1c(F)cccc1Nc1nc(Nc2cc3c(cc2OC)CCN3C(=O)CN(C)C)nc2[nH]ccc12 [GSK1838705A]	more limited sensitization		little or no inhibition	OA rescue blockade (AsPC1 cells [1]; 60 μM devimistat): No; Devimistat synergy (AsPC1 cells [2]): No
CCN(CCO)CCCC(C)Nc1ccnc2cc(Cl)ccc12 (stereo not drawn) [HCQ]	Synergy observed	significantly accelerates glycogen consumption		sensitization to devimistat-induced cell death, agent combined with devimistat (PANC1 cells [3]): Synergy observed; glycogen consumption (PANC1 cells [5]): significantly accelerates glycogen consumption
CSc1cccc(Nc2ncc3cc(-c4c(Cl)cccc4Cl)c(=O)n(C)c3n2)c1 [PD-173955]	more limited sensitization		little or no inhibition	OA rescue blockade (AsPC1 cells [1]; 60 μM devimistat): No; Devimistat synergy (AsPC1 cells [2]): No
Oc1c(Cl)cc(Cl)c(Cl)c1Cc1c(O)c(Cl)cc(Cl)c1Cl [hexachlorophene]				blockade of glutamine rescue from devimistat inhibition of ATP synthesis (AsPC1 cells [1]): blockade
CC[C@H]1/C=C/C=C/C[C@@H](C)[C@H](O)[C@@](C)(O)C(=O)[C@@H](C)[C@H](O)[C@@H](C)C(=O)[C@@H](C)[C@H](O)[C@@H](C)/C=C/C(=O)O[C@@H]2[C@H](C)[C@H](CC1)O[C@]1(CC[C@H](C)[C@H](C[C@@H](C)O)O1)[C@H]2C [oligomycin]		induce accelerated glycogen depletion		
[H]/N=C(/N)N/C(=N/[H])NCCc1ccccc1 [phenformin]	sensitizes AsPC1 to devimistat			
C=C(C)[C@H]1Cc2c(ccc3c2O[C@@H]2COc4cc(OC)c(OC)cc4[C@@H]2C3=O)O1 [rotenone]		induce accelerated glycogen depletion		
